{
  "source": "patent US8822509B2",
  "about": "“Pain-relieving compositions and uses therefor” (priority 2006, dated 2014)",
  "key": {"[1]": {"system": "systolic blood pressure of normotensive non-diabetic Wistar rats", "test": "Systolic blood pressure (tail cuff) in normotensive rats", "assay_type": "in vivo", "protocol": "Sedation was induced by the intraperitoneal administration of Zoletil® (tiletamine 15 mg kg^−1 and zolazepam 15 mg kg^−1). Using a tail pulse transducer (MLT1010) and an inflatable tail cuff with a Capto SP844 physiological pressure transducer (MLT844/D), systolic blood pressure was recorded via a PowerLab data acquisition unit (ADInstruments, Sydney, Australia). Tails were warmed with lukewarm water prior to each blood pressure reading to increase peripheral circulation so as to facilitate blood pressure recordings using the tail cuff method.\nThis study was designed to assess the effects of single s.c. bolus doses of the furoxan NO donor, Compound 1, relative to vehicle (DMSO:water, 90:10) on systolic blood pressure in normotensive, non-diabetic, adult male Wistar rats. Single bolus doses of Compound 1 were administered by s.c. injection into the back of the neck of adult male normotensive, non-diabetic Wistar rats in the dose range, 80 fmol/kg to 80 lμmol/kg. Specifically, the doses of Compound 1 tested were 80 fmol/kg (n=3), 800 pmol/kg (n=8), 8 nmol/kg (n=6), 800 nmol/kg (n=4), 8 μmol/kg (n=4), 80 μmol/kg (n=3)."}, "MOP receptor": {"target": "T1, MOP receptor (Mus musculus, UniProt P42866)", "T1 construct": "expressed in transfected cells; host or cells: HEK293 (membranes of MOP-HEK cells)", "T1 sequence (P42866 whole entry)": "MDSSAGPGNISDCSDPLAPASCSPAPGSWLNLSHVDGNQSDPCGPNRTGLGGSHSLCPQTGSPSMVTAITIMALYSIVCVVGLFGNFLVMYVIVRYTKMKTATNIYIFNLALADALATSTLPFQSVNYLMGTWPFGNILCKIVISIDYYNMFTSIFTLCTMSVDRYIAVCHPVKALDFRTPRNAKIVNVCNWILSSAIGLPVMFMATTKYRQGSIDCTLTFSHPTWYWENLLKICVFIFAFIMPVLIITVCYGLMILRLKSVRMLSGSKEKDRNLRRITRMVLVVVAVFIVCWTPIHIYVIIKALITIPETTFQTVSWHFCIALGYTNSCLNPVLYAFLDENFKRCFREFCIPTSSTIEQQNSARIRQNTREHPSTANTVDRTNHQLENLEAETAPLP", "test": "Displacement of specific binding of [3H]-DAMGO from membranes of MOP-transfected HEK293 cells", "protocol": "A binding assay was performed to determine whether Compound 1 binds at the MOP receptor.\nStably transfected MOP-HEK cells were plated in a 3×10 cm dish and washed with (3×5 mL) 50 mM Tris-HCl (pH 7.4) when sufficiently confluent. The cells were scraped off the dish in 1.5 mL 50 mM Tris-HCl (pH 7.4) using a transfer pipette and place in 15 mL falcon tubes. The cells were sonicated for a 5 second burst and placed on ice. The protein concentration was estimated. The cells were transferred to a 1.5 mL eppendorf tube and centrifuged at 18,000 rcf for 30 minutes at 4° C. The supernatant was removed and the cells resuspended in 50 mM Tris-HCl (pH 7.4) and 1 mg/mL BSA. An aliquot containing 30-50 μg/200 μL protein was taken and [^3H]DAMGO was added (200 μL in Tris-HCl, pH 7.4) with varying concentrations of unlabelled [D-Ala^2, N-Me-Phe^4, Gly^5-ol]-enkephalin acetate (DAMGO) or Compound 1 (200 μL in Tris-HCl, pH 7.4), total volume 600 μL. The solution was incubated for 1 hour at room temperature with slow rotation."}, "[2]": {"system": "cGMP formation in HEK-MOP cells", "test": "cGMP levels in MOP-transfected HEK cells (AlphaScreen)", "assay_type": "cell-based", "protocol": "For assessment of cGMP levels in MOP-transfected HEK cells, the methods used were similar to those described in Example 6 with the exception that forskolin was omitted from the incubations. cGMP levels were quantified using AlphaScreen detection kits according to the manufacturer's instructions. Briefly, 5 μL aliquots of the cell suspension were added to individual wells containing 5 μL aliquots of test or control article solutions at the concentration of interest in triplicates in 384-well plates and incubated for 30 min at 37° C. cGMP standard solutions were serially diluted in stimulation buffer to give concentrations in the range of 5×10^−10-5×10^−6 M and were added at 10 μL/well. After cells were lysed with lysis buffer, 5 μL aliquots of acceptor bead mix (10 μl/mL of acceptor beads and 1/3000 anti-cGMP antibody for cGMP detection in lysis buffer) were added to each well. After plates were incubated in the dark at room temperature for 60 min, 5 μL aliquots of donor bead mix (10 μL/mL of donor beads and 0.3 nM biotinylated cGMP in lysis buffer) were added per well and plates were incubated for 16 h in the dark at room temperature. […] was measured using an Envision Multilabel Plate Reader (PerkinElmer Life Sciences)."}, "[3]": {"test": "In vitro NO release (Total NOx, modified Griess reagent assay)", "protocol": "Briefly, HEK-MOP cells were seeded at 1×10^5 cells/mL and grown in 10 cm plates to 90% confluence. Four hours prior to experimentation, cell medium was replaced with phenol red-free DMEM. […] Following removal of each supernatant sample, it was replaced with 500 μL of phenol red-free DMEM. Samples were immediately placed on ice until NOx concentrations were quantified.\nSample aliquots (100 μL) were added to 96-well plates in duplicates. Nitrate was first converted to nitrite to determine total NOx concentrations with the addition of 100 μL aliquots of vanadium (III) chloride in 1M HCl (800 mg/100 mL) per well, followed by 100 μL aliquots of modified Griess reagent which converted nitrite to a deep purple azo derivative for spectrophotometric quantification at 560 nm using an Envision Multilabel Plate Reader (PerkinElmer Life Sciences). […] Total NOx and nitrite concentration was determined through inverse prediction against the nitrite standard curve."}, "[4]": {"system": "non-diabetic control rats", "test": "Tolerance development (7-day continuous s.c. infusion, 2-day washout) in non-diabetic control rats, von Frey PWT", "assay_type": "in vivo"}, "STZ-diabetic rats": {"system": "STZ-diabetic rats", "test": "Tolerance development (7-day s.c. infusion, 2-day washout) in STZ-diabetic rats, von Frey PWT", "assay_type": "in vivo"}, "[5]": {"system": "tactile allodynia in 14-18 week STZ-diabetic rats", "test": "Naloxone or ODQ pre-treatment before test article in 14-18 week STZ-diabetic rats, von Frey PWT", "assay_type": "in vivo, Wistar rats"}, "[6]": {"target": "κ-opioid receptors (KOP receptors) (Mus musculus, UniProt P33534)", "sequence (P33534 whole entry)": "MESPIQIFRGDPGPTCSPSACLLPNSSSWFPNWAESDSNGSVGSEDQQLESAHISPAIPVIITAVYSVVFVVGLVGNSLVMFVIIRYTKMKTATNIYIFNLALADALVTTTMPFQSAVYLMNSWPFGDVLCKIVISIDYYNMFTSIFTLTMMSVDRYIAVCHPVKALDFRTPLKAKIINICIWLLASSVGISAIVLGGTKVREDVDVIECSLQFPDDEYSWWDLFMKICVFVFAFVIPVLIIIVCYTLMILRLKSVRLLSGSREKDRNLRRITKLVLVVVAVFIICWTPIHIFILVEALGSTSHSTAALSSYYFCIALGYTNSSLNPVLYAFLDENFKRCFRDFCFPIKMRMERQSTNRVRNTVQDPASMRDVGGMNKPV", "test": "Forskolin-stimulated cAMP responses in KOP-transfected HEK293 cells", "conditions": "KOP-transfected HEK293, entire concentration range tested", "description": "(§1) Non-transfected HEK293 cells were used as a control. Transfected HEK293 cells were maintained in Dulbecco's Modified Eagle's Medium (DMEM) supplemented with 10% fetal bovine serum (FBS) and geneticin (1 mg/mL). Non-transfected HEK293 cells were maintained in DMEM supplemented with 10% FBS.\n(§2) The functional interaction between opioids and opioid-like compounds and specific opioid G-protein-coupled receptors (GPCRs) was assessed by measuring changes in intracellular cAMP levels relative to basal levels. The Alphascreen cAMP functional assay measures agonist and antagonist activity of GPCRs by stimulating cells to either increase or decrease intracellular cAMP levels. The assay was performed using an Alphascreen cAMP kit according to the manufacturer's instructions. […]\n(§3) Detection of cAMP is based on the competition between intracellular cAMP and biotinylated cAMP linked streptavidin-coated donor beads for anti-cAMP conjugated acceptor beads. When the donor and acceptor beads are in close proximity visible light emitted at 520-620 nm is detected using the Envision multilabel plate reader. […]\n(§4) The assay performance was optimized by using cells at low passage number and at 70-90% confluence. […] The cell concentration was determined using a haemocytometer. […] Note that the cell number will influence the cAMP levels measured before (basal) and after adenylyl cyclase activation. […]"}, "[7]": {"system": "non-transfected HEK293 cells", "test": "Forskolin-stimulated cAMP responses in non-transfected HEK293 cells", "conditions": "non-transfected HEK293, entire concentration range tested", "description": "as §1, §2, §3, §4"}, "[8]": {"conditions": "drug-naïve non-diabetic rats, first s.c. bolus"}, "[9]": {"conditions": "non-diabetic rats, second s.c. bolus after 7-day infusion and 2-day washout"}, "[10]": {"conditions": "non-diabetic rats, second s.c. bolus after washout"}, "[11]": {"conditions": "STZ-diabetic rats, second bolus Compound 1 800 pmol/kg after 2-day washout"}, "[12]": {"conditions": "naïve STZ-diabetic rats, first s.c. bolus"}},
  "note": "Several values for one entry are separate records, joined by “and”; a condition that tells them apart may be missing. Equal values may be shown once. Entries after “also recorded” stand apart in the source; their conditions may differ.",
  "data": [
    {"smiles": "Cc1c(C=O)no[n+]1[O-]", "note": "[Compound 1, 4-formyl-3-methyl-1,2,5-oxadiazole-2-oxide]", "values": [
      {"measurement": "effect on systolic blood pressure", "setting": "[1]; 80 μmol/kg s.c., 30 min post-dosing vs pre-dosing baseline", "value": "decreased significantly; also recorded: significantly reduced systolic blood pressure"},
      {"measurement": "mean (±SEM) systolic blood pressure at time of peak effect", "setting": "[1]; 80 μmol/kg s.c., 30 min post-dosing, pre-dose 111.3 (±1.5)", "value": "79.8 (±0.5) mm Hg"},
      {"measurement": "mean systolic blood pressure", "setting": "[1]; 80 μmol/kg s.c., 1 h post-dosing", "value": "112.6±0.4", "unit": "mm Hg"},
      {"measurement": "effect on systolic blood pressure", "setting": "[1]; single s.c. bolus 80 fmol/kg to 8 μmol/kg, up to 1 h", "value": "no significant effects"},
      {"measurement": "binding to MOP receptors ([3H]-DAMGO displacement)", "setting": "MOP receptor", "value": "does not bind significantly"},
      {"measurement": "cGMP Activity (% of basal cGMP response)", "setting": "[2]; Compound 1, 1 mM", "value": "159 + 20%"},
      {"measurement": "cGMP Activity (% of basal cGMP response)", "setting": "[2]; Compound 1, 1 mM + L-Cysteine 5 mM", "value": "185 + 34%"},
      {"measurement": "fold increase in cGMP activity with L-cysteine", "setting": "[2]; Compound 1, 1 mM + L-Cysteine 5 mM vs alone", "value": "(1.2 fold increase)"},
      {"measurement": "stimulation of cGMP formation", "setting": "[2]; HEK-MOP cells, presence and absence of L-cysteine (5 mM)", "value": "comparatively weak stimulation of cGMP formation"},
      {"measurement": "Release of NO (Total NOx %)", "setting": "[3]; Compound 1, 1 mM + L-Cysteine 5 mM, 6-h (b277 prints 50 mM)", "value": "2.7±0.3% and 2.7 + 0.3%"},
      {"measurement": "Release of NO (Total NOx %)", "setting": "[3]; Compound 1, 1 mM, 6-h study period", "value": "1.8% and 1.8±0.3%"},
      {"measurement": "1 Hour Total NOx", "setting": "[3]; NOx analysis at 1 hour, assay of Example 9", "value": "2.08 µM and 2.19 µM"},
      {"measurement": "6 Hours Total NOx", "setting": "[3]; NOx analysis at 6 hours, assay of Example 9", "value": 2.52, "unit": "µM"},
      {"measurement": "mean duration of action", "setting": "[4]; [8]", "value": "~3", "unit": "h"},
      {"measurement": "time of peak antinociception post-dosing", "setting": "[4]; [8]", "value": 1, "unit": "h"},
      {"measurement": "mean (±SEM) peak PWT", "setting": "[4]; drug-naïve non-diabetic rats, Compound 1 8 fmol/kg, morphine 2.8 mmol/kg (so in the source) s.c. bolus", "value": "15.9 ± 0.3", "unit": "g"},
      {"measurement": "tolerance after 7-day continuous s.c. infusion", "setting": "[4]; non-diabetic rats", "value": "completely tolerant"},
      {"measurement": "antinociception after second bolus, naïve vs \"tolerant\" rats", "setting": "[4]; non-diabetic rats, after 2-day washout", "value": "did not differ significantly"},
      {"measurement": "mean (±SEM) peak PWT", "setting": "[4]; [9]", "value": "15.6 (±0.7) g"},
      {"measurement": "mean (±SEM) peak ΔPWT", "setting": "[4]; [9]", "value": "4.2 (±0.6) g"},
      {"measurement": "mean duration of action", "setting": "[4]; [10]", "value": "~3", "unit": "h"},
      {"measurement": "time of peak antinociception post-dosing", "setting": "[4]; [10]", "value": 1, "unit": "h"},
      {"measurement": "tolerance after 7-day s.c. infusion", "setting": "STZ-diabetic rats; STZ-diabetic rats", "value": "completely tolerant"},
      {"measurement": "anti-allodynia after second bolus (tolerance status)", "setting": "STZ-diabetic rats; STZ-diabetic rats, after 2-day washout, morphine 10.5 μmol/kg, Compound 1 800 pmol/kg", "value": "significant reversal of tolerance"},
      {"measurement": "mean duration of action", "setting": "STZ-diabetic rats; [11]", "value": "2 to 3", "unit": "h"},
      {"measurement": "time of peak anti-allodynia post-dosing", "setting": "STZ-diabetic rats; [11]", "value": "~1", "unit": "h"},
      {"measurement": "mean duration of action", "setting": "STZ-diabetic rats; [12]", "value": "~4", "unit": "h"},
      {"measurement": "time of peak anti-allodynia post-dosing", "setting": "STZ-diabetic rats; [12]", "value": 1, "unit": "h"},
      {"measurement": "mean (±SEM) peak PWT", "setting": "STZ-diabetic rats; naïve STZ-diabetic rats, Compound 1 800 pmol/kg, morphine 10.4 μmol/kg s.c. bolus", "value": "11.6 (±0.6) g"},
      {"measurement": "effect of ODQ pre-treatment on anti-allodynia", "setting": "[5]; ODQ 53.4 μmol/kg s.c. 60 min before Compound 1 800 pmol/kg s.c.", "value": "significantly attenuated from 45 minutes onwards; also recorded: partially sensitive"},
      {"measurement": "effect of naloxone pre-treatment on anti-allodynia (ΔPWT AUC)", "setting": "[5]; naloxone 1.25 μmol/kg s.c. 10 min before Compound 1 800 pmol/kg or morphine 7 μmol/kg s.c.", "value": "did not significantly attenuate; also recorded: naloxone insensitive"},
      {"measurement": "inhibition of forskolin-stimulated cAMP formation", "setting": "[6]", "value": "did not appear to inhibit"},
      {"measurement": "inhibition of forskolin-stimulated cAMP formation", "setting": "[7]", "value": "did not appear to inhibit"}
    ]}
  ]
}
